Converted amounts (≈) assume the structure as drawn. The source made the active and inactive calls. No cut-off for these calls is given here.
Key:
[1] = system: Bacillus subtilis; test: Antibacterial activity against Bacillus subtilis ATCC 6633 at 100 ug/mL by microdilution method; format: functional, organism-based
[2] = system: Bacillus subtilis; test: Antibacterial activity against Bacillus subtilis ATCC 6633 at 100 ug/disk by disk diffusion method; format: functional
[3] = system: Candida albicans; test: Antifungal activity against Candida albicans ATCC 90028 at 100 ug/disk by disk diffusion method; format: functional, organism-based
[4] = system: Escherichia coli; test: Antibacterial activity against Escherichia coli ATCC 25922 at 100 ug/mL by microdilution method; format: functional, organism-based
[5] = system: Staphylococcus aureus; test: Antibacterial activity against Staphylococcus aureus ATCC 29213 at 100 ug/disk by disk diffusion method; format: functional, organism-based
[6] = system: Escherichia coli; test: Antibacterial activity against Escherichia coli ATCC 25922 at 100 ug/disk by disk diffusion method; format: functional, organism-based
[7] = system: Staphylococcus aureus; test: Antibacterial activity against Staphylococcus aureus ATCC 29213 at 100 ug/mL by microdilution method; format: functional, organism-based
[8] = system: Candida albicans; test: Antifungal activity against Candida albicans ATCC 90028 at 100 ug/mL by microdilution method; format: functional, organism-based
[9] = system: Staphylococcus aureus; test: Antibacterial activity against Staphylococcus aureus ATCC 29213 by microdilution method; format: functional
[10] = system: Bacillus subtilis; test: Antibacterial activity against Bacillus subtilis ATCC 6633 by microdilution method; format: functional

SMILES | Activity [1] | Activity [2] | Activity [3] | Activity [4] | Activity [5] | Activity [6] | Activity [7] | Activity [8] | zone of inhibition at 100 µg/disc ([2]; read-out: IZ) [mm] | MIC [9] [µg/mL] | MIC [10] [µg/mL]
C[C@@H]1CC[C@@]2(C)C(C(=O)O)=CC[C@H](O)[C@@H]2[C@@]1(C)CCc1ccoc1 | inactive | inactive | inactive | inactive | inactive | inactive | inactive | inactive | – | – | –
COC(=O)C1=CC[C@H](O)[C@@H]2[C@@](C)(CCc3ccoc3)[C@H](CO)CC[C@@]12C | inactive | inactive | inactive | inactive | inactive | inactive | inactive | inactive | – | – | –
CC(=O)OC[C@@H]1CC[C@@]2(C)C(C(=O)O)=CCC[C@@H]2[C@@]1(C)CCc1ccoc1 | inactive | inactive | inactive | inactive | inactive | inactive | inactive | inactive | – | – | –
C[C@H]1CC[C@]2(C)C(C(=O)O)=CCC[C@H]2[C@]1(C)CCc1ccoc1 | – | – | – | – | – | – | – | – | 10 | 25 (≈ 79 µM) | 12.5 (≈ 39.5 µM)
C[C@@H]1CC[C@@]2(C)C(C(=O)O)=CCC[C@@H]2[C@@]1(C)CCc1ccoc1 | – | – | – | – | – | – | – | – | – | – | 0.78 (≈ 2.46 µM)

From ChEMBL document CHEMBL1147220, “Divinatorins A-C, new neoclerodane diterpenoids from the controlled sage Salvia divinorum” (2003)
